Assay results: patent publication US20250101488A1, “RAPID DIAGNOSTIC DRY REAGENT TEST FOR ANTIBIOTIC RESISTANCE, AND METHODS OF USE AND METHODS OF MAKING THEREOF” (BioAmp Diagnostics, Inc., priority 2022, published 2025)
Entries after “also recorded” stand apart in the source; their conditions may differ. Like-named read-outs stand apart in the source and are kept apart here.

Columns and labels:
[1] = system: cefotaxime (CTX) non-susceptible Gram-negative bacteria (GNB); experiment: DETECT assay with 96-bacterial isolate panel, ROC curve analysis against cefotaxime (CTX) phenotype; assay type: cell-based; details: 2.5×10^6 CFU/mL, DETECT score A405 nm 30 min minus 0 min; for Sensitivity (ROC Curve Analyzed with CTX): 96-bacterial isolate panel (47 CTX susceptible, 49 CTX non-susceptible); for AUC (95% CI) (ROC Curve Analyzed with CTX) / Specificity (ROC Curve Analyzed with CTX): 96-bacterial isolate panel
Excerpt: A pool of 5 probe hits were each evaluated using a 96-bacterial isolate panel. In these studies, the 96-bacterial isolate panel was comprised of 47 cefotaxime (CTX) susceptible and 49 CTX non-susceptible, Gram-negative bacteria (GNB). As described above, CTX is a surrogate to detect ceftriaxone susceptibility and, therefore, was applied as the reference phenotype to group true positive, CTX-non-susceptible (include both CTX resistant and intermediate), and true negative, CTX-susceptible. Whole cell suspensions were prepared to yield an experimental concentration of 2.5×10^6 CFU/mL. In a 96-well plate, wells were prepared with all DETECT reagents, except for the targeting probe under investigation. Bacterial suspensions were transferred to the prepared wells of the plate and an initial timepoint was recorded (0 minutes) upon addition of a stock solution of a given probe (Sub-1, (7R)-7-(2-(1H-tetrazol-1-yl)acetamido)-8-oxo-3-((phenylthio)methyl)-5-thia-1-azabicyclo[4.2.0]oct-2-ene-2-carboxylic acid (BAD-5835), (7R)-7-(3-methylisoxazole-5-carboxamido)-8-oxo-3-((phenylthio)methyl)-5-thia-1-azabicyclo[4.2.0]oct-2-ene-2-carboxylic acid (BAD-1468), (7R)-8-oxo-3-((phenylthio)methyl)-7-(2-(pyridin-3-yl)acetamido)-5-thia-1-azabicyclo[4.2.0]oct-2-ene-2-carboxylic acid (BAD-5627), and (7R)-8-oxo-3-((phenylthio)methyl)-7-((S)-piperidine-3-carboxamido)-5-thia-1-azabicyclo[4.2.0]oct-2-ene-2-carboxylic acid (BAD-3462), (7R)-8-oxo-7-(2-phenoxyacetamido)-3-((phenylthio)methyl)-5-thia-1-azabicyclo[4.2.0]oct-2-ene-2-carboxylic acid (BAD-7465)). The absorbance of the wells was collected at 405 nm at 0 and 30 minutes, using a simple benchtop plate reader. The “DETECT Score” values were then calculated for each sample by subtracting the 405 nm absorbance recorded at the 0-minute timepoint from the 30-minute timepoint. Therefore, each sample was identified to have a unique DETECT score that was then can be group into positive and negative phenotype subgroups for threshold value determination via ROC curve analysis.

[2] = Aqueous stability: non-selective hydrolysis of the probe, k(hydro); assay type: physicochemical; details: for Stability k(hydro): rate of non-selective hydrolysis of the probe and turn on of the DETECT system in the absence of its biomarker target
Experimental: In order to find use in rapid diagnostic tests, ESBL-targeting probes that had at least the following favorable criteria were evaluated: • 1. Aqueous stability—measured through non-selective hydrolysis • a. Favorable criteria: k(hydro)<0.0062 mM/min • 2. Activity towards target β-lactamase target CTX-M-15—measured using recombinant β-lactamase • a. Favorable criteria: k(β-lactamase)>0.0568 mM/min • 3. Activity towards off-target lower generation β-lactamase (prioritizing the most common, TEM-1b) • a. Favorable criteria: k(TEM-1b)<0.02135 mM/min

papain = molecular target: T1, papain (Carica papaya, UniProt P00784); experiment: Dry reagent test strip, Study 1: papain activation by cysteine, reflectance; details: coating and drying at 37° C.; judged by reflectance of control strip
T1 sequence (P00784 134-345): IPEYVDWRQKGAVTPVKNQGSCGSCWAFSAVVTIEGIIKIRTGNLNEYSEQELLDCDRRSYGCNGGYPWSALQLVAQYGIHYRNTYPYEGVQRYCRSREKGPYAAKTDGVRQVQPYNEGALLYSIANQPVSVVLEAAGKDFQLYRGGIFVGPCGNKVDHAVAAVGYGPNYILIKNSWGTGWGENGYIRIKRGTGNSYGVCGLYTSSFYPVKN
Experimental: The second coating consisted of adding the water-soluble components (buffer salts and papain) and dried a second time in the oven at 37° C. […] Multiple formulation combinations of the DETECT components were examined to determine optimal change of reflectance over time.
Excess solution is removed with glass rods and the paper placed in the oven and dried for 60 minutes at 37° C. In a dry room (relative humidity<20%), the dried filter paper is adhered onto a polyester film support. […] The order of applying the DETECT components typically includes adding the methanol soluble components first followed by the water-soluble components.
Papain activity by cysteine activation was assessed by using two test strips where one received 100 μM cysteine (sample) while the other received buffer (control).
In study 1, different formulations (i.e., different amounts of the papain and BAPA) were used to prepare strips to obtain the highest possible reflectance change when the yellow-colored signal is generated from activating papain (se FIG. 8) and measured with a Konica Minolta reflectance spectrophotometer. […]
Study 1. […] The difference of percent reflectance (% Rscore) between sample and control is determined by subtracting the percent reflectance of the control strip from the sample strip for each time point to yield an increasing % Rscore over time (see FIG. 9A-B).

recombinant CTX-M-15 = recombinant CTX-M-15 (Escherichia coli, UniProt Q9EXV5); experiment: Dry reagent test strip, Study 2: activation by recombinant CTX-M-15, reflectance; details: 1 or 4 nM CTX-M-15, read every 4 minutes for 20 minutes
Sequence of recombinant CTX-M-15 (Q9EXV5 entry or part of it): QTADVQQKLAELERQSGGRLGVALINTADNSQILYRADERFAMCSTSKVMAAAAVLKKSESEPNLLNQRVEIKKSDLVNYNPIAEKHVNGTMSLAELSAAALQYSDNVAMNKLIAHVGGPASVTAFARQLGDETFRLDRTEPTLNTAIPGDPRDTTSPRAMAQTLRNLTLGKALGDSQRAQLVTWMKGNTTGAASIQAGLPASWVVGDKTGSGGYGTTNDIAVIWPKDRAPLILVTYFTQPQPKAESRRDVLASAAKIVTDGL
Experimental: If the small molecule targeting probe was not severely affected by the fabrication process, then in the presence of CTX-M-15, it will be hydrolyzed and liberate the triggering unit to initiate the signaling cascade thus providing the yellow colorimetric response.
The sample test strip received 1 or 4 nM of β-lactamase, while the control received buffer and the reflectance was monitored every 4 minutes for 20 minutes (see FIG. 8B).

[3] = cited from earlier work

**Q.** Which results are given for `O=C(Cc1ccccc1)N[C@@H]1C(=O)N2C(C(=O)O)=C(CSc3ccccc3)CSC12` (stereo partly drawn) [Sub-1, (7R)-8-oxo-7-(2-phenylacetamido)-3-((phenylthio)methyl)-5-thia-1-azabicyclo[4.2.0]oct-2-ene-2-carboxylic acid, reference compound]?
**A.** Sensitivity (ROC Curve Analyzed with CTX) [1]: 0.9206; AUC (95% CI) (ROC Curve Analyzed with CTX) [1]: 0.7717; Specificity (ROC Curve Analyzed with CTX) [1]: 0.8125; stability and promiscuity characteristics for rapidly detecting ceftriaxone non-susceptibility directly from urine [2]: not adequate; Stability k(hydro) [2]: 0.0062 M/min

**Q.** Which results are given for `O=C(O)C1=C(CSc2ccccc2)CSC2[C@H](NC(=O)[C@H]3CCCNC3)C(=O)N12` (stereo partly drawn) [BAD-3462, (7R)-8-oxo-3-((phenylthio)methyl)-7-((S)-piperidine-3-carboxamido)-5-thia-1-azabicyclo[4.2.0]oct-2-ene-2-carboxylic acid]?
**A.** Sensitivity (ROC Curve Analyzed with CTX) [1]: 0.8116; AUC (95% CI) (ROC Curve Analyzed with CTX) [1]: 0.8717; Specificity (ROC Curve Analyzed with CTX) [1]: 0.8519; Stability k(hydro) [2]: 0.00558 M/min

**Q.** Which “Sensitivity (ROC Curve Analyzed with CTX)” value (“Sensitivity” below) [1] does the source give for `O=C(Cn1cnnn1)N[C@@H]1C(=O)N2C(C(=O)O)=C(CSc3ccccc3)CSC12` (stereo partly drawn) [BAD-5835, (7R)-7-(2-(1H-tetrazol-1-yl)acetamido)-8-oxo-3-((phenylthio)methyl)-5-thia-1-azabicyclo[4.2.0]oct-2-ene-2-carboxylic acid] here?
**A.** 0.8823

**Q.** What about the “AUC (95% CI) (ROC Curve Analyzed with CTX)” value (shortened to “AUC (95% CI)”) [1] of the same compound?
**A.** 0.9586

**Q.** What about the “Specificity (ROC Curve Analyzed with CTX)” value (from here on “Specificity”) [1] of the same compound?
**A.** 0.9259

**Q.** And the “Stability k(hydro)” value [2]?
**A.** 0.0044 M/min

**Q.** What about the “stability of the probe to the test strip fabrication process” value (papain) of the same compound?
**A.** did NOT decompose; also recorded: did not show any sign of degradation

**Q.** What about the “detection of recombinant CTX-M-15 on test strip (change in reflectance)” value (recombinant CTX-M-15) of the same compound?
**A.** retained its ability to detect the presence of CTX-M-15; also recorded: significant change in reflectance

**Q.** What does the source list for `Cc1cc(C(=O)N[C@@H]2C(=O)N3C(C(=O)O)=C(CSc4ccccc4)CSC23)on1` (stereo partly drawn) [BAD-1468, (7R)-7-(3-methylisoxazole-5-carboxamido)-8-oxo-3-((phenylthio)methyl)-5-thia-1-azabicyclo[4.2.0]oct-2-ene-2-carboxylic acid]?
**A.** Sensitivity (ROC Curve Analyzed with CTX) [1]: 0.8406; AUC (95% CI) (ROC Curve Analyzed with CTX) [1]: 0.8846; Specificity (ROC Curve Analyzed with CTX) [1]: 0.8519; Stability k(hydro) [2]: 0.00198 M/min

**Q.** For `O=c1ccc2nc3ccc(O)cc3oc-2c1` [resorufin], which extinction coefficient ([3]; absorbance wavelength of 570 nm) is on record?
**A.** 56,000 M^1 cm^−1

**Q.** And the “fluorescent quantum yield (ϕ)” value ([3]; in water)?
**A.** 0.74

**Q.** With `O=C(Cc1cccnc1)N[C@@H]1C(=O)N2C(C(=O)O)=C(CSc3ccccc3)CSC12` (stereo partly drawn) [BAD-5627, (7R)-8-oxo-3-((phenylthio)methyl)-7-(2-(pyridin-3-yl)acetamido)-5-thia-1-azabicyclo[4.2.0]oct-2-ene-2-carboxylic acid] as the compound, how does the “Sensitivity” value [1] read?
**A.** 0.9275

**Q.** And the “AUC (95% CI)” value [1]?
**A.** 0.9614

**Q.** What about the “Specificity” value [1] of the same compound?
**A.** 0.9259

**Q.** And the “Stability k(hydro)” value [2]?
**A.** 0.00352 M/min

**Q.** For `Nc1ccc([N+](=O)[O-])cc1` [p-nitroaniline], which extinction coefficient ([3]; absorbance wavelength of 405 nm) is on record?
**A.** 9,767 M-1 cm^−1

**Q.** For `O=C(COc1ccccc1)N[C@@H]1C(=O)N2C(C(=O)O)=C(CSc3ccccc3)CSC12` (stereo partly drawn) [BAD-7465, (7R)-8-oxo-7-(2-phenoxyacetamido)-3-((phenylthio)methyl)-5-thia-1-azabicyclo[4.2.0]oct-2-ene-2-carboxylic acid], which “Sensitivity” value [1] is on record?
**A.** 0.7143

**Q.** What about the “AUC (95% CI)” value [1] of the same compound?
**A.** 0.7717

**Q.** And the “Specificity” value [1]?
**A.** 0.8077

**Q.** And the “Stability k(hydro)” value [2]?
**A.** 0.00161 M/min
